According to patent publication US6440964B1, “Compositions and methods for treating ophthalmic and otic infections” (priority 1998, dated 2002):
In brackets after ≈: the same amount, converted by molar mass. Like-named read-outs stand apart in the source and are kept apart here.

What was measured:
Microbacterium alconae = assay: In vitro activity (MIC) by agar and broth dilution methods against clinical isolates; assay type: cell-based; conditions: for MIC: read-out: minimum inhibitory concentration (MIC)
Method: (§1) The activity levels were determined as MIC (minimum inhibitory concentration) values. In order to compare the activity of the compounds of the present invention to other antibiotics, MIC values for representatives quinolones, aminoglycosides, β-lactams and other types of antibiotics were also determined. […] The MCC numbers (e.g., “MCC 10647”) represent separate clinical isolates of the two Microbacterium species tested.

Microbacterium otitidis = assay: as above; assay type: cell-based; conditions: for MIC: read-out: minimum inhibitory concentration (MIC)
Method: as §1

[1] = test system: H influenzae/βlactamase negative; assay: MIC90 of Moxifloxacin for bacteria associated with ophthalmic, otic and nasal infections; assay type: cell-based
Excerpt: (§2) The concentrations of the antibiotics of formula (I) in the compositions of the present invention will vary depending on the intended use of the compositions (e.g., treatment of existing infections or prevention of post-surgical infections), and the relative antimicrobial activity of the specific antibiotic selected. The antimicrobial activity of antibiotics is generally expressed as the minimum concentration required to inhibit the growth of a specified pathogen. This concentration is also referred to as the “minimum inhibitory concentration” or “MIC”. The term “MIC90” refers to the minimum concentration of antibiotic required to inhibit the growth of ninety percent (90%) of the strains of a species. The concentration of an antibiotic required to totally kill a specified bacteria is referred to as the “minimum bactericidal concentration” or “MBC”.

[2] = test system: S. epidermidis/methicillin resistant; assay: as above; assay type: cell-based
Excerpt: as §2

P. aeruginosa = assay: as above; assay type: cell-based
Excerpt: as §2

[3] = test system: S. epidermidis/methicillin sensitive; assay: as above; assay type: cell-based
Excerpt: as §2

[4] = test system: H. influenzae/β-lactamase positive; assay: as above; assay type: cell-based
Excerpt: as §2

[5] = test system: S. aureus/methicillin sensitive; assay: as above; assay type: cell-based
Excerpt: as §2

[6] = test system: S. aureus/quinolone resistant; assay: as above; assay type: cell-based
Excerpt: as §2

[7] = test system: S. aureus/methicillin resistant; assay: as above; assay type: cell-based
Excerpt: as §2

[8] = test system: S. pneumoniae/penicillin resistant; assay: as above; assay type: cell-based
Excerpt: as §2

[9] = test system: S. pneumoniae/penicillin sensitive; assay: as above; assay type: cell-based
Excerpt: as §2

M. alconae = assay: as above; assay type: cell-based, Microbacterium alconae
Excerpt: as §2

M. otitidis = assay: as above; assay type: cell-based, Microbacterium otitidis
Excerpt: as §2

Compound	MIC (Microbacterium alconae; clinical isolate MCC 11316) [µg/mL]	MIC (Microbacterium alconae; clinical isolate MCC 11558) [µg/mL]	MIC (Microbacterium alconae; clinical isolate MCC 11639) [µg/mL]	MIC (Microbacterium alconae; clinical isolate MCC 11653) [µg/mL]	MIC (Microbacterium alconae; clinical isolate MCC 11699) [µg/mL]	MIC (Microbacterium otitidis; clinical isolate MCC 10647) [µg/mL]	MIC (Microbacterium otitidis; clinical isolate MCC 10810) [µg/mL]	MIC (Microbacterium otitidis; clinical isolate MCC 10990) [µg/mL]	MIC (Microbacterium otitidis; clinical isolate MCC 11495) [µg/mL]	MIC (Microbacterium otitidis; clinical isolate MCC 11676) [µg/mL]	also measured
Gentamicin											minimum inhibitory concentration (MIC) (Microbacterium alconae; clinical isolate MCC 11316): 2.0 micrograms per milliliter; minimum inhibitory concentration (MIC) (Microbacterium alconae; clinical isolate MCC 11558): 2.0 micrograms per milliliter; minimum inhibitory concentration (MIC) (Microbacterium alconae; clinical isolate MCC 11639): 2.0 micrograms per milliliter; minimum inhibitory concentration (MIC) (Microbacterium alconae; clinical isolate MCC 11653): 2.0 micrograms per milliliter; minimum inhibitory concentration (MIC) (Microbacterium alconae; clinical isolate MCC 11699): 2.0 micrograms per milliliter; minimum inhibitory concentration (MIC) (Microbacterium otitidis; clinical isolate MCC 10647): 8.0 micrograms per milliliter; minimum inhibitory concentration (MIC) (Microbacterium otitidis; clinical isolate MCC 10810): 4.0 micrograms per milliliter; minimum inhibitory concentration (MIC) (Microbacterium otitidis; clinical isolate MCC 10990): 4.0 micrograms per milliliter; minimum inhibitory concentration (MIC) (Microbacterium otitidis; clinical isolate MCC 11495): 16 micrograms per milliliter; minimum inhibitory concentration (MIC) (Microbacterium otitidis; clinical isolate MCC 11676): 4.0 micrograms per milliliter
Moxifloxacin											MIC90 [1]: 0.06 µg/mL; MIC90 [2]: 4.0 µg/mL; MIC90 (P. aeruginosa): 8.0 µg/mL; MIC90 [3]: 0.25 µg/mL; MIC90 [4]: 0.06 µg/mL; MIC90 [5]: 0.13 µg/mL; MIC90 [6]: 4.0 µg/mL; MIC90 [7]: 4.0 µg/mL; MIC90 [8]: 0.25 µg/mL; MIC90 [9]: 0.25 µg/mL; MIC90 (M. alconae): 0.25 µg/mL; MIC90 (M. otitidis): 2.0 µg/mL
CC[C@H]1OC(=O)[C@H](C)[C@@H](O[C@H]2C[C@@](C)(OC)[C@@H](O)[C@H](C)O2)[C@H](C)[C@@H](O[C@@H]2O[C@H](C)C[C@H](N(C)C)[C@H]2O)[C@](C)(O)C[C@@H](C)C(=O)[C@H](C)[C@@H](O)[C@]1(C)O [Erythromycin]	1 (≈ 1.36 µM)	2 (≈ 2.73 µM)	2 (≈ 2.73 µM)	0.5 (≈ 0.681 µM)	0.5 (≈ 0.681 µM)	0.03 (≈ 0.0409 µM)	0.03 (≈ 0.0409 µM)	0.03 (≈ 0.0409 µM)	0.03 (≈ 0.0409 µM)	0.03 (≈ 0.0409 µM)	
O=C(N[C@H](CO)[C@H](O)c1ccc([N+](=O)[O-])cc1)C(Cl)Cl [Chloramphenicol]	16 (≈ 49.5 µM)	16 (≈ 49.5 µM)	16 (≈ 49.5 µM)	16 (≈ 49.5 µM)	16 (≈ 49.5 µM)	1 (≈ 3.09 µM)	1 (≈ 3.09 µM)	1 (≈ 3.09 µM)	1 (≈ 3.09 µM)	1 (≈ 3.09 µM)	
Neomycin											minimum inhibitory concentration (MIC) (Microbacterium alconae; clinical isolate MCC 11316): 1.0 micrograms per milliliter; minimum inhibitory concentration (MIC) (Microbacterium alconae; clinical isolate MCC 11558): 1.0 micrograms per milliliter; minimum inhibitory concentration (MIC) (Microbacterium alconae; clinical isolate MCC 11639): 1.0 micrograms per milliliter; minimum inhibitory concentration (MIC) (Microbacterium alconae; clinical isolate MCC 11653): 1.0 micrograms per milliliter; minimum inhibitory concentration (MIC) (Microbacterium alconae; clinical isolate MCC 11699): 1.0 micrograms per milliliter; minimum inhibitory concentration (MIC) (Microbacterium otitidis; clinical isolate MCC 10647): 8.0 micrograms per milliliter; minimum inhibitory concentration (MIC) (Microbacterium otitidis; clinical isolate MCC 10810): 2.0 micrograms per milliliter; minimum inhibitory concentration (MIC) (Microbacterium otitidis; clinical isolate MCC 10990): 2.0 micrograms per milliliter; minimum inhibitory concentration (MIC) (Microbacterium otitidis; clinical isolate MCC 11495): 8.0 micrograms per milliliter; minimum inhibitory concentration (MIC) (Microbacterium otitidis; clinical isolate MCC 11676): 2.0 micrograms per milliliter
Polymyxin B											minimum inhibitory concentration (MIC) (Microbacterium alconae; clinical isolate MCC 11316): 32.5 micrograms per milliliter; minimum inhibitory concentration (MIC) (Microbacterium alconae; clinical isolate MCC 11558): 32.5 micrograms per milliliter; minimum inhibitory concentration (MIC) (Microbacterium alconae; clinical isolate MCC 11639): 16 micrograms per milliliter; minimum inhibitory concentration (MIC) (Microbacterium alconae; clinical isolate MCC 11653): 16 micrograms per milliliter; minimum inhibitory concentration (MIC) (Microbacterium alconae; clinical isolate MCC 11699): 16 micrograms per milliliter; minimum inhibitory concentration (MIC) (Microbacterium otitidis; clinical isolate MCC 10647): 1040 micrograms per milliliter; minimum inhibitory concentration (MIC) (Microbacterium otitidis; clinical isolate MCC 10810): 260 micrograms per milliliter; minimum inhibitory concentration (MIC) (Microbacterium otitidis; clinical isolate MCC 10990): 260 micrograms per milliliter; minimum inhibitory concentration (MIC) (Microbacterium otitidis; clinical isolate MCC 11495): 1040 micrograms per milliliter; minimum inhibitory concentration (MIC) (Microbacterium otitidis; clinical isolate MCC 11676): 16 micrograms per milliliter
CCC[C@@H]1C[C@@H](C(=O)N[C@@H]([C@H]2O[C@H](SC)[C@H](O)[C@@H](O)[C@H]2O)[C@H](C)Cl)N(C)C1 [Clindamycin]	4 (≈ 9.41 µM)	4 (≈ 9.41 µM)	4 (≈ 9.41 µM)	4 (≈ 9.41 µM)	4 (≈ 9.41 µM)	0.03 (≈ 0.0706 µM)	0.03 (≈ 0.0706 µM)	0.03 (≈ 0.0706 µM)	0.03 (≈ 0.0706 µM)	0.03 (≈ 0.0706 µM)	
CN(C)[C@@H]1C(O)=C(C(N)=O)C(=O)[C@@]2(O)C(O)=C3C(=O)c4c(O)cccc4[C@@](C)(O)[C@H]3C[C@@H]12 [Tetracycline]	1 (≈ 2.25 µM)	1 (≈ 2.25 µM)	1 (≈ 2.25 µM)	1 (≈ 2.25 µM)	1 (≈ 2.25 µM)	1 (≈ 2.25 µM)	1 (≈ 2.25 µM)	1 (≈ 2.25 µM)	1 (≈ 2.25 µM)	1 (≈ 2.25 µM)	
NC[C@H]1O[C@H](O[C@H]2[C@H](O)[C@@H](O[C@H]3O[C@H](CO)[C@@H](O)[C@H](N)[C@H]3O)[C@H](N)C[C@@H]2N)[C@H](N)C[C@@H]1O [Tobramycin]	16 (≈ 34.2 µM)	16 (≈ 34.2 µM)	16 (≈ 34.2 µM)	16 (≈ 34.2 µM)	16 (≈ 34.2 µM)	32 (≈ 68.4 µM)	4 (≈ 8.56 µM)	4 (≈ 8.56 µM)	4 (≈ 8.56 µM)	16 (≈ 34.2 µM)	
CC1COc2c(N3CCN(C)CC3)c(F)cc3c(=O)c(C(=O)O)cn1c23 (stereo not shown) [Ofloxacin]	4 (≈ 11.1 µM)	4 (≈ 11.1 µM)	4 (≈ 11.1 µM)	4 (≈ 11.1 µM)	4 (≈ 11.1 µM)	16 (≈ 44.3 µM)	32 (≈ 88.6 µM)	8 (≈ 22.1 µM)	16 (≈ 44.3 µM)	8 (≈ 22.1 µM)	
Cc1onc(-c2ccccc2)c1C(=O)N[C@@H]1C(=O)N2[C@@H]1SC(C)(C)[C@@H]2C(=O)O [Oxacillin]	8 (≈ 19.9 µM)	16 (≈ 39.9 µM)	32 (≈ 79.7 µM)	32 (≈ 79.7 µM)	32 (≈ 79.7 µM)	2 (≈ 4.98 µM)	4 (≈ 9.96 µM)	2 (≈ 4.98 µM)	4 (≈ 9.96 µM)	2 (≈ 4.98 µM)	
